What was measured:
[1] = biological target: T1, mKv1.3 channels stably expressed in mouse L929 fibroblasts (Mus musculus, UniProt P16390); test: Whole-cell patch-clamp electrophysiology on Kv1.3; type: cell-based; settings: mKv1.3 in L929 fibroblasts, 200 ms pulses to 40 mV every 30 s, holding -80 mV, Hill fit, n = 3 to 6 cells per concentration
T1 construct: expressed in transfected cells
Protocol: Mouse fibroblasts stably expressing homotetramers of Kv1.1 or Kv1.3 were patch-clamped in the whole-cell configuration and steady-state block was measured after addition of different concentrations of the peptides.
(§1) Chips averaged 2–3.5 MΩ and a holding potential of −80 mV was used for all recordings. Series resistance compensation of 80% was used when currents exceeded 2 nA. The external solution was normal Ringer solution containing (in mM): 160 NaCl, 4.5 KCl, 2 CaCl2, 1 MgCl2, 10 Hepes, pH 7.4, 310 mOsm. The internal solution contained (in mM): 145 KF, 10 HEPES, 10 EGTA (ethylene glycol tetraacetic acid), 2 MgCl2, pH 7.2, 300 mOsm. Currents were elicited by repeated 200 ms pulses to 40 mV applied at intervals of 30 s for Kv1.3 and 10 s for Kv1.1. IC50 values were determined by fitting the Hill equation to the reduction of area under the current curve measured at 40 mV in the presence of different concentrations of the peptides (GraphPad Prism software, La Jolla, CA, USA).

[2] = biological target: T2, hKv1.6 (HEK cells transiently transfected with hKv1.6:eGFP) (Homo sapiens, UniProt P17658); test: Whole-cell patch-clamp electrophysiology on Kv1.6; type: cell-based; settings: for block of Kv1.6 at 100 nM: HEK cells transiently transfected with hKv1.6:eGFP, patched 19 h after transfection, peptide 100 nM
T2 construct: expressed in transfected cells; host or cells: HEK cells, transient, Lipofectamine 2000 (plasmid a gift from Dr. Heike Wulff)
Protocol: The HEK cells were patched 19 h after transfection.
as §1

[3] = biological target: T3, Kv1.4 (mouse LTK fibroblasts stably transfected with Kv1.4) (Homo sapiens, UniProt P22459); test: Whole-cell patch-clamp electrophysiology on Kv1.4; type: cell-based; settings: for block of Kv1.4 at 100 nM: mouse LTK fibroblasts stably transfected with Kv1.4, peptide 100 nM
T3 construct: expressed in transfected cells

[4] = tested on: acute adoptive EAE, animal model of MS mediated by T lymphocytes; settings: cited from earlier work
Excerpt: The Kv1.3 channel was discovered in the early 1980’s by the Chandy and Cahalan labs at the University of California Irvine and the Deutsch lab at the University of Pennsylvania. This K^+ channel, found in T lymphocytes, was the first to be described outside electrically excitable tissues. […] Kv1.3 in T lymphocytes is a voltage-gated homotetrameric membrane protein responsible for controlling the me ...

T3 sequence (P22459 whole entry): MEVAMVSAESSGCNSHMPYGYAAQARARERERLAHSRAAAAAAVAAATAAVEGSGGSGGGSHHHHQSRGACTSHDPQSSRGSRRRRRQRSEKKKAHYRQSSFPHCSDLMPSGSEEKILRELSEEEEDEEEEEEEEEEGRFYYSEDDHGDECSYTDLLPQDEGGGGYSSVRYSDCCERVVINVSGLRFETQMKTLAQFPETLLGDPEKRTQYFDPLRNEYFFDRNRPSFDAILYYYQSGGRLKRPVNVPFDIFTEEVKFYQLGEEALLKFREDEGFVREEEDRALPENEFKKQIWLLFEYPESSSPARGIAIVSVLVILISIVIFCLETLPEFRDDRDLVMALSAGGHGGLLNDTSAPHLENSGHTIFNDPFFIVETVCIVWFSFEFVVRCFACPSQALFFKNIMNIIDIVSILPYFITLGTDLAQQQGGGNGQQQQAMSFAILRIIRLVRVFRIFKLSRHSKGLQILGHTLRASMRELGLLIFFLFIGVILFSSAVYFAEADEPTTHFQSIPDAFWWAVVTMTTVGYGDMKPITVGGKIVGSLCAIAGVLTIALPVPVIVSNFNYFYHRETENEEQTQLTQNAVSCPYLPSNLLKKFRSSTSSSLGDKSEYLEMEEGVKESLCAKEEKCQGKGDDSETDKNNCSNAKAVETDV
T1 sequence (P16390 whole entry): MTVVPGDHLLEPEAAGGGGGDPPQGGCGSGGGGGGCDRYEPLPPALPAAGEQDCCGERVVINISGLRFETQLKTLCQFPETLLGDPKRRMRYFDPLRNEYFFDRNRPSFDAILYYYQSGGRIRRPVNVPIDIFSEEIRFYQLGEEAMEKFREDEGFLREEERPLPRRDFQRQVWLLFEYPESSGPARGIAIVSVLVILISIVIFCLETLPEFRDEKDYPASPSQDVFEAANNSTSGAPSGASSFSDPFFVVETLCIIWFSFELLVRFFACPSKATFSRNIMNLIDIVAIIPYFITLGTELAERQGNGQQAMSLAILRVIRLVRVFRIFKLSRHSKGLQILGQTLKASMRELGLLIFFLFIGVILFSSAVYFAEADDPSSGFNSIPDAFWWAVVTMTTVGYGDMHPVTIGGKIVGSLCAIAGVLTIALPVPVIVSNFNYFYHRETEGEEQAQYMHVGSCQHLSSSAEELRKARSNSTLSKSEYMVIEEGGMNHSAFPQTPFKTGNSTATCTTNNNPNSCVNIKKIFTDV
T2 sequence (P17658 whole entry): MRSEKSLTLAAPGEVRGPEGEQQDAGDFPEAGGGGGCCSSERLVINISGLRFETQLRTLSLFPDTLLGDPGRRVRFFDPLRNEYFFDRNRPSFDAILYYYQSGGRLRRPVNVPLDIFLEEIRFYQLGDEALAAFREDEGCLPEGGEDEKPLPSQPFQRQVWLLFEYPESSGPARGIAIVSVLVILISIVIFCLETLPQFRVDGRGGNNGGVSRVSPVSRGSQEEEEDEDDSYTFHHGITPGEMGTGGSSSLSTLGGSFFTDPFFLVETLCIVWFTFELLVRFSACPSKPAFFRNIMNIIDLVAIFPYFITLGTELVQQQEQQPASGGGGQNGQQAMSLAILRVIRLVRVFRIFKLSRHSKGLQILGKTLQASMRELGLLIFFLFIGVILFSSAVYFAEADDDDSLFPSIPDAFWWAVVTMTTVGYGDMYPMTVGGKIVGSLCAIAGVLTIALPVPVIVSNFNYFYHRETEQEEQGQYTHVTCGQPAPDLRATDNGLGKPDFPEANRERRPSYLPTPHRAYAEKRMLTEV

For CC[C@H](C)[C@@H]1NC(=O)[C@@H](NC(=O)[C@H](CO)NC(=O)[C@@H](N)CCCNC(=N)N)CSSC[C@@H](C(=O)O)NC(=O)[C@H]([C@@H](C)O)NC(=O)CNC(=O)[C@@H]2CSSC[C@@H]3NC(=O)[C@H](CCC(N)=O)NC(=O)[C@H](Cc4ccccc4)NC(=O)[C@H](C)NC(=O)[C@H]([C@@H](C)O)NC(=O)[C@H](CSSC[C@H](NC(=O)[C@H](Cc4ccccc4)NC(=O)[C@H](CO)NC(=O)[C@H](CC(C)C)NC(=O)[C@H](CCCNC(=N)N)NC(=O)[C@H](Cc4ccc(O)cc4)NC(=O)[C@H](CCCCN)NC(=O)[C@H](CCSC)NC(=O)[C@H](CO)NC(=O)[C@H](Cc4cnc[nH]4)NC(=O)[C@H](CCCCN)NC3=O)C(=O)N[C@@H](CCCNC(=N)N)C(=O)N[C@@H](CCCCN)C(=O)N[C@@H]([C@@H](C)O)C(=O)N2)NC(=O)[C@H](CCCNC(=N)N)NC(=O)[C@H](CO)NC(=O)[C@H](CCCCN)NC(=O)[C@@H]2CCCN2C(=O)[C@H]([C@@H](C)CC)NC(=O)[C@H]([C@@H](C)O)NC(=O)[C@H](CC(=O)O)NC1=O [ShK, reference compound], which IC50 [1] is on record?
Its IC50 is 0.0133 ± 0.0014 nM.

And the IC50 [2]?
The IC50 was 165 ± 8 nM.

What about the IC50 [3] of the same compound?
Its IC50 is 0.312 ± 0.014 nM.

Which IC50 [1] does the source give for CC[C@H](C)[C@@H]1NC(=O)[C@@H](NC(=O)[C@H](CO)NC(=O)[C@@H](N)CCCNC(=N)N)CSSC[C@@H](C(=O)N[C@@H](C)C(=O)O)NC(=O)[C@H]([C@@H](C)O)NC(=O)CNC(=O)[C@@H]2CSSC[C@@H]3NC(=O)[C@H](CCCCN)NC(=O)[C@H](Cc4ccccc4)NC(=O)[C@H](C)NC(=O)[C@H]([C@@H](C)O)NC(=O)[C@H](CSSC[C@H](NC(=O)[C@H](Cc4ccccc4)NC(=O)[C@H](CO)NC(=O)[C@H](CC(C)C)NC(=O)[C@H](CCCNC(=N)N)NC(=O)[C@H](Cc4ccc(O)cc4)NC(=O)[C@H](CCCCN)NC(=O)[C@H](CCSC)NC(=O)[C@H](CO)NC(=O)[C@H](Cc4c[nH]cn4)NC(=O)[C@H](CCCCN)NC3=O)C(=O)N[C@@H](CCCNC(=N)N)C(=O)N[C@@H](CCCCN)C(=O)N[C@@H]([C@@H](C)O)C(=O)N2)NC(=O)[C@H](CCCNC(=N)N)NC(=O)[C@H](CO)NC(=O)[C@H](CCCCN)NC(=O)[C@@H]2CCCN2C(=O)[C@H]([C@@H](C)CC)NC(=O)[C@H]([C@@H](C)O)NC(=O)[C@H](CC(=O)O)NC1=O [ShK-234] here?
The IC50 was 0.037 ± 0.0046 nM.

And the “block of Kv1.6 at 100 nM” value [2]?
Its value is about 25%.

What about the “block of Kv1.4 at 100 nM” value [3] of the same compound?
The value was under 15% block at 100 nM.

For CC[C@H](C)[C@@H]1NC(=O)[C@H](CO)NC(=O)[C@H](Cc2c[nH]cn2)NC(=O)[C@H](CCCCN)NC(=O)[C@@H]2CSSC[C@@H]3NC(=O)[C@H]([C@@H](C)O)NC(=O)[C@H](CCCCN)NC(=O)[C@H](CCCNC(=N)N)NC(=O)[C@H](CSSC[C@H](NC(=O)[C@H](CCCNC(=N)N)NC(=O)[C@H](CO)NC(=O)[C@H](CCCCN)NC(=O)[C@@H]4CCCN4C(=O)[C@H]([C@@H](C)CC)NC(=O)[C@H]([C@@H](C)O)NC(=O)[C@H](CC(=O)O)NC(=O)[C@H]([C@@H](C)CC)NC(=O)[C@@H](NC(=O)[C@H](CO)NC(=O)[C@@H](N)CCCNC(=N)N)CSSC[C@@H](C(=O)N[C@@H](C)C(=O)O)NC(=O)[C@H]([C@@H](C)O)NC(=O)CNC3=O)C(=O)N[C@@H]([C@@H](C)O)C(=O)N[C@@H](C)C(=O)N[C@@H](Cc3ccccc3)C(=O)N[C@@H](CCCCN)C(=O)N2)NC(=O)[C@H](Cc2ccccc2)NC(=O)[C@H](CO)NC(=O)[C@H](CC(C)C)NC(=O)[C@H](CCCNC(=N)N)NC(=O)[C@H](Cc2ccc(O)cc2)NC(=O)[C@H](CCCCN)NC1=O [ShK-235], which IC50 [1] is on record?
Its IC50 is 0.062 ± 0.0132 nM.

What about the “block of Kv1.6 at 100 nM” value [2] of the same compound?
Its value is about 25%.

And the “block of Kv1.4 at 100 nM” value [3]?
The value was under 15% block at 100 nM.

With kaliotoxin as the compound, how does the “effect on acute adoptive EAE” value [4] read?
The value was “ameliorate clinical signs”.

From PMC4306950 (Marine Drugs, 2015)
